# Experimental data taken from patent US12729458B2, “Discovery and evolution of biologically active metabolites” (The Regents of the University of Colorado, a Body Corporate, priority 2020, dated 2026).
# “Also recorded” adds a separate entry of the source. Read-outs that look alike come from different tables or passages of the source.
# Columns and labels:
# PTP1B (PTP1B1-321) = target: T1, PTP1B (PTP1B1-321) (Homo sapiens, UniProt P18031); assay: PTP1B-catalyzed hydrolysis of pNPP in the presence of terpenoids (enzyme kinetics, IC50 from best-fit models); assay type: biochemical, H. sapiens; details: for IC50: 15 mM pNPP, 10% DMSO; for Ki: PTP1B1-321
# T1 construct: His-tag; made in house; host or cells: E. coli BL21 (DE3), pET21b
# T1 sequence (P18031 1-321): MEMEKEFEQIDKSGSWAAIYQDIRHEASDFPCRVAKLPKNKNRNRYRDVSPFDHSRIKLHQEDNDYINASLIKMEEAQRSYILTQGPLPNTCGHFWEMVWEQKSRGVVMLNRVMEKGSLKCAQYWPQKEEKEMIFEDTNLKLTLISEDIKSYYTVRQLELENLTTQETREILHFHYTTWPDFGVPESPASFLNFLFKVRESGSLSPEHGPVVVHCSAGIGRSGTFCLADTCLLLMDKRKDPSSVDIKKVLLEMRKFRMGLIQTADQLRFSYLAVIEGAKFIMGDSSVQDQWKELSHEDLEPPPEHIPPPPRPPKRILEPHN
# Procedure: Enzyme kinetics. To examine terpenoid-mediated inhibition, PTP1B-catalyzed hydrolysis of p-nitrophenyl phosphate (pNPP) was measured in the presence of various concentrations of terpenoids. Each reaction included PTP1B ([…]), pNPP (0.33, 0.67, 2, 5, 10, and 15 mM), inhibitors (110 μM, 50 μM, and 15 μM for amorphadiene; 100 μM, 50 μM, and 16.7 μM for taxadiene), and buffer (50 mM HEPES pH=7.5, 0.5 mM TCEP, 50 μg/ml BSA, 10% DMSO). The formation of p-nitrophenol was monitored by measuring absorbance at 405 nm every 10 seconds for 5 minutes on a Spectramax M2 plate reader.
# Kinetic models were evaluated in three steps: (i) Initial-rate measurements collected in the absence and presence of inhibitors were fitted to Michaelis-Menten and inhibition models, respectively (here, the nlinfit and fminsearch functions from MATLAB were used). (ii) An F-test was used to compare the mixed model to the single-parameter model with the least sum squared error (here, the fcdf function from MATLAB was used to assign p-values), and the mixed model was accepted when p<0.05.
# The MATLAB function “nlparci” was used to determine the confidence intervals of kinetic parameters, and those intervals were propagated to estimate corresponding confidence on IC50's.
# (§1) Enzyme kinetics. To examine terpenoid-mediated inhibition, we measured PTP-catalyzed hydrolysis of p-nitrophenyl phosphate (pNPP) or 4-methylumbelliferyl phosphate (4-MUP, used when KM for pNPP was large) in the presence of various concentrations of terpenoids. Each reaction included PTP (0.05 μM PTP1B/TCPTP or 0.1 μM SHP1/SHP2 in 50 mM HEPES, 0.5 mM TCEP, 50 μg/ml BSA), pNPP (0.33, 0.67, 2, 5, 10, and 15 mM) or 4-MUP (0.13, 0.27, 0.8, 2.27, 2.93, 4.53, 7.07, and 8 mM), inhibitor (with concentrations listed in the figures), buffer (50 mM HEPES pH=7.3, 50 μg/ml BSA), and DMSO at 10% v/v. We monitored the formation of p-nitrophenol by measuring absorbance at 405 nm every 10 seconds for 5 minutes on a SpectraMax M2 plate reader and the formation of 4-methylumbelliferyl by measuring fluorescence at 450 nm (370 nm ex, 435 nm cutoff, medium gain).
# (§2) We used a custom MATLAB script to process all raw kinetic data. This script removed all concentration values that fell outside of either (i) the range of our standard curve (absorbance/fluorescence vs. μM; FIG. 39) or (ii) the initial rate regime (>10% of the pNPP or 4-MUP concentration used in the assay). When this step reduced kinetic dataset to fewer than ten points, we re-measured those datasets to collect at least ten. We fit final datasets, in turn, with a linear regression model (using Matlab's backslash operator).
# We evaluated kinetic models in three steps: (i) We fit initial-rate measurements collected in the absence and presence of inhibitors to Michaelis-Menten and inhibition models, respectively (here, we used the nlinfit and fminsearch functions from MATLAB; TABLE 12). (ii) We used an F-test to compare the mixed model to the single-parameter model with the least sum squared error (here, we used the fedf function from MATLAB to assign p-values), and we accepted the mixed model when p<0.05.
# PTP1B = target: T2, PTP1B (Homo sapiens, UniProt P18031); assay: Ligand efficiency (TABLE 15); parameters: species or system H. sapiens; details: for IC50: PTP1B, the patent's own terpenoid inhibitors
# T2 sequence (P18031 1-321 limits assumed): T1 sequence (P18031 1-321)
# SHP1 = target: T3, SHP1 (Homo sapiens, UniProt P29350); assay: SHP1-catalyzed hydrolysis of 4-MUP in the presence of terpenoids; assay type: biochemical, H. sapiens
# T3 construct: made in house; host or cells: E. coli BL21 (DE3)
# T3 sequence (P29350 whole entry): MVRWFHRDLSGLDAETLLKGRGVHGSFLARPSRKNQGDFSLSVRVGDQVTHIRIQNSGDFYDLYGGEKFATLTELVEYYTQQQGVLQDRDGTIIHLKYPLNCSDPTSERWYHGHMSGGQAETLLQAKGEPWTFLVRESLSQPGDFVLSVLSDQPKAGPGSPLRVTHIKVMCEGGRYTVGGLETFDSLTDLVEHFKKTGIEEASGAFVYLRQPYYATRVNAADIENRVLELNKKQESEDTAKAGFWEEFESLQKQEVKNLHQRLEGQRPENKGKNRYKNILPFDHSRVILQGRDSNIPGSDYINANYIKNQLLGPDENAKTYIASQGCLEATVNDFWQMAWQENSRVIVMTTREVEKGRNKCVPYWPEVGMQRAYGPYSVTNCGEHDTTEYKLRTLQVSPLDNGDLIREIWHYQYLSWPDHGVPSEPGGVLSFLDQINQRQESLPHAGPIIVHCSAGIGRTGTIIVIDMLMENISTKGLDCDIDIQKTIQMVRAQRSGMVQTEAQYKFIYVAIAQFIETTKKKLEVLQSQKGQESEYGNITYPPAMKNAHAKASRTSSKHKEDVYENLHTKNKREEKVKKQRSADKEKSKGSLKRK
# Procedure: as §1
# as §2, with “operator). […]” for “operator).”
# SHP2 (SHP2223-565) = target: T4, SHP2 (SHP2223-565) (Homo sapiens, UniProt Q06124); assay: SHP2-catalyzed hydrolysis of 4-MUP in the presence of terpenoids; assay type: biochemical, H. sapiens; details: for Ki: SHP2223-565
# T4 construct: made in house; host or cells: E. coli BL21 (DE3)
# T4 sequence (Q06124 223-565 limits assumed): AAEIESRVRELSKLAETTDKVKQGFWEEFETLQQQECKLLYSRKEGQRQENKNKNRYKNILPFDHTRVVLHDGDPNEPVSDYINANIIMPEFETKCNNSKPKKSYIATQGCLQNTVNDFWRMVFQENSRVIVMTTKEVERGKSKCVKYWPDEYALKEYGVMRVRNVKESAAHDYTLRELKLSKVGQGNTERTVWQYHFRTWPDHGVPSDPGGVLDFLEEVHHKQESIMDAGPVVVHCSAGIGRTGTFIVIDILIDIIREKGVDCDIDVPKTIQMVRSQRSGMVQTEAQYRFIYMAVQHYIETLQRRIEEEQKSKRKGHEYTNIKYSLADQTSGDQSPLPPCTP
# Procedure: as §1, §2
# We evaluated kinetic models in three steps: (i) We fit initial-rate measurements collected in the absence and presence of inhibitors to Michaelis-Menten and inhibition models, respectively (here, we used the nlinfit and fminsearch functions from MATLAB; TABLE 12). (ii) We used an F-test to compare the mixed model to the single-parameter model with the least sum squared error (here, we used the fedf function from MATLAB to assign p-values), and we accepted the mixed model when p<0.05. (iii) We used the Akaike's Information Criterion (AIC) to compare the best-fit single parameter model to each alternative single parameter model, and we accepted the “best-fit” model when the difference in AIC (Δi) exceed 5 for all comparisons.^78 We note: For AD, AB, and (+) 1-(10),4-cadinadiene this criterion was not met; both noncompetitive and uncompetitive models, however, yielded indistinguishable ICso's.
# We used the MATLAB function “nlparci” to determine the confidence intervals of kinetic parameters, and we propagated those intervals to estimate corresponding confidence intervals for each IC50.
# [1] = Example 2, HEPES pH 7.3, ± 95% confidence interval
# [2] = competitive model of inhibition, read-out: Fit par. Ki, competitive model
# [3] = mixed model, competitive constant, read-out: Fit par. Ki,c, mixed model
# [4] = mixed model, uncompetitive constant, read-out: Fit par. Ki,u, mixed model
# [5] = noncompetitive model of inhibition, read-out: Fit par. Ki, noncompetitive model
# [6] = uncompetitive model of inhibition, read-out: Fit par. Ki, uncompetitive model
Structure (SMILES),"IC50 (PTP1B (PTP1B1-321); Example 1, HEPES pH 7.5)",IC50 (PTP1B (PTP1B1-321); [1]),Ki (PTP1B (PTP1B1-321); [2]),Ki (PTP1B (PTP1B1-321); [3]),Ki (PTP1B (PTP1B1-321); [4]),Ki (PTP1B (PTP1B1-321); [5]),Ki (PTP1B (PTP1B1-321); [6]),ligand efficiency (PTP1B; (−2.303RT)/HAC * log(IC50)),IC50 (PTP1B),ligand efficiency (PTP1B; TABLE 15),inhibition of SHP1 (SHP1),other results
C=C(C)[C@@H]1CC[C@@H](C)[C@@H]2CCC(C)=C[C@@H]21 [amorphadiene],~53 µM,53 ± 8 µM,2.85 µM,86.2 µM,50.1 µM,52.6 µM,46.3 µM,0.39 kcal/mol-atom,50 µM,high,too weak to measure,"simultaneous binding with TCS401 (Dixon plot) (PTP1B (PTP1B1-321); Vo^−1 vs. [TCS401] at various concentrations of AD): cannot bind simultaneously; simultaneous binding with orthovanadate (Dixon plot) (PTP1B (PTP1B1-321); Vo^−1 vs. [orthovanadate] at various concentrations of AD): can bind simultaneously; model (mode) of PTP1B inhibition from Michaelis-Menten fits (PTP1B (PTP1B1-321); pNPP initial rates): noncompetitive or uncompetitive inhibition; also recorded: noncompetitive inhibition; potency against SHP2 relative to PTP1B (SHP2 (SHP2223-565); 4-MUP, less potent on SHP2): three-fold; Ki (SHP2 (SHP2223-565); [2]): 25.1 µM; Ki (SHP2 (SHP2223-565); [3]): 236 µM; Ki (SHP2 (SHP2223-565); [4]): 132 µM; Ki (SHP2 (SHP2223-565); [5]): 146 µM; Ki (SHP2 (SHP2223-565); [6]): 117 µM"
CC(C)=CCC=C(C)C1CC=C(C)CC1 (stereo not drawn) [α-bisabolene],~20 µM,13 ± 2 µM,1.05 µM,9.51 µM,13.7 µM,13.1 µM,11.7 µM,0.44 kcal/mol-atom,13 µM,high,low potency,"inhibition of SHP2 (SHP2 (SHP2223-565); 4-MUP): low potency; % inhibition of SHP2 (SHP2 (SHP2223-565); at the solubility limit, 4-MUP): ≤ 25%"
